Test results taken from patent US20250340551A1, “SMALL MOLECULE MODULATORS OF STAT6” (Gilead Sciences, Inc., priority 2024, published 2025).
pEC50: −log10 of the molar value.

The compounds below were run on Eotaxin-3 (CCL26) release in human whole blood stimulated with IL-4 (assay: Human whole blood eotaxin-3 assay (IL-4 stimulated, Eotaxin-3 release)). Settings: Homo sapiens, 48 h.
Type: cell-based
Method: This was a human whole blood assay using recombinant human Interleukin 4 to stimulate the blood and measuring the ability of the test compounds to inhibit eotaxin-3 release. The biological activities of the test compounds have been tested in human whole blood stimulated with IL-4 measuring Eotaxin-3 release. The test compounds were added to 384 well clear flat-bottom plate in a 4-fold serial dilution in triplicates using a liquid handler. Human whole blood stabilized in lithium-heparin tubes was added in a volume of 65 μL per well, resulting in a final DMSO concentration of 0.5%. The plate is incubated for 2 h at 37° C. under 5% CO2/95% air. Subsequently, 5 μL of recombinant human IL-4 (R&D Systems, cat #204-ILB) was added to the wells to a final concentration of 400 pM. The plate was incubated for 48 h at 37° C. under 5% CO2/95% air. The plate was spun down for 10 minutes at 500×g and 20 μL supernatant was harvested and transferred to a 384 well v-bottom plate using a liquid handler and stored at −20° C. until further analysis. 10 μL supernatant was used to measure the level of Eotaxin-3 (CCL26) using Human Eotaxin-3 MSD kit from Mesocsale (Cat #K251UEK-4). The assay was performed according to the manufacture instructions.
The data from the human whole blood eotaxin-3 assay is shown below for Examples 1u2, 1x1, 1af26, and 1af36 (where the effect in % is plotted against the test concentration in M on a log-scale).

First: [2H]C([2H])([2H])N(C(=O)c1ccc(C2CCN([C@@H](C)c3cc4c(-c5cnc(N)cc5C#N)ccnc4n3C)CC2)cc1)C([2H])([2H])[2H] [Example 1af70, (S)-4-(1-(1-(4-(6-amino-4-cyanopyridin-3-yl)-1-methyl-1H-pyrrolo[2,3-b]pyridin-2-yl)ethyl)piperidin-4-yl)-N,N-bis(methyl-d3)benzamide]
Second: [2H]C([2H])([2H])N(C(=O)c1cnc(C2=CCN(Cc3cc4c(-c5ccc(N)nc5)ccnc4n3C)CC2)cn1)C([2H])([2H])[2H] [Example 1af79, 5-(1-((4-(6-Aminopyridin-3-yl)-1-methyl-1H-pyrrolo[2,3-b]pyridin-2-yl)methyl)-1,2,3,6-tetrahydropyridin-4-yl)-N,N-bis(methyl-d3)pyrazine-2-carboxamide]
The Emax of the first is higher: 30 to 40% for the first, 20 to 30% for the second.

`CNc1ccc(-c2ccnc3c2cc(CN2CC=C(c4ccc(C(=O)N(C)C)cn4)CC2)n3C)nn1` [Example 1p8, N,N-Dimethyl-6-[1-[[1-methyl-4-[6-(methylamino)pyridazin-3-yl]pyrrolo[2,3-b]pyridin-2-yl]methyl]-3,6-dihydro-2H-pyridin-4-yl]pyridine-3-carboxamide] and `CNc1ccc(-c2ccnc3c2cc(CN2CCN(c4ccc(C(=O)N(C)C)cn4)CC2)n3C)nn1` [Example 1p9, N,N-Dimethyl-6-[4-[[1-methyl-4-[6-(methylamino)pyridazin-3-yl]pyrrolo[2,3-b]pyridin-2-yl]methyl]piperazin-1-yl]pyridine-3-carboxamide] cannot be ordered by Emax: < 20% for the first, < 20% for the second.

`CN(C)C(=O)c1ccc(C2=CCN(Cc3cc4c(-c5ccc(N)nc5)ccnc4n3C)CC2)nn1` [Example 1z3, 6-(1-((4-(6-aminopyridin-3-yl)-1-methyl-1H-pyrrolo[2,3-b]pyridin-2-yl)methyl)-1,2,3,6-tetrahydropyridin-4-yl)-N,N-dimethylpyridazine-3-carboxamide] was tested, and the Emax was < 20%.

Same assay, conditions: Homo sapiens, Hec50, 48 h

Point of comparison: `[2H]C([2H])([2H])N(C(=O)c1cnc(C2=CCN(Cc3cc4c(-c5ccc(N)nc5)ccnc4n3C)CC2)nc1)C([2H])([2H])[2H]` [Example 1af73, 2-(1-((4-(6-Aminopyridin-3-yl)-1-methyl-1H-pyrrolo[2,3-b]pyridin-2-yl)methyl)-1,2,3,6-tetrahydropyridin-4-yl)-N,N-bis(methyl-d3)pyrimidine-5-carboxamide], pEC50 7.33. Against it:
- [2H]C([2H])([2H])N(C(=O)c1ccc(C2CCN([C@@H](C)c3cc4c(-c5ccc(NCCO)nc5)ccnc4n3C)CC2)cc1)C([2H])([2H])[2H] [Example 1af69, (S)-4-(1-(1-(4-(6-((2-hydroxyethyl)amino)pyridin-3-yl)-1-methyl-1H-pyrrolo[2,3-b]pyridin-2-yl)ethyl)piperidin-4-yl)-N,N-bis(methyl-d3)benzamide] — 0.75 log units lower, 6.58
- CN(C)C(=O)c1cc(F)c(C2=CCN(Cc3cc4c(-c5ccc(N)nn5)ccnc4n3C)CC2)c(Cl)c1 [Example 1af75, 4-(1-((4-(6-Aminopyridazin-3-yl)-1-methyl-1H-pyrrolo[2,3-b]pyridin-2-yl)methyl)-1,2,3,6-tetrahydropyridin-4-yl)-3-chloro-5-fluoro-N,N-dimethylbenzamide] — 0.53 log units lower, 6.80
- Cc1cc(C(=O)N(C)C)ccc1C1=CCN(Cc2cc3c(-c4ccc(N)nn4)ccnc3n2C)CC1 [Example 1af76, 4-(1-((4-(6-Aminopyridazin-3-yl)-1-methyl-1H-pyrrolo[2,3-b]pyridin-2-yl)methyl)-1,2,3,6-tetrahydropyridin-4-yl)-N,N,3-trimethylbenzamide] — 0.82 log units lower, 6.51
- CN(C)C(=O)c1ccc(C2=CCN(Cc3cc4c(-c5ccc(N)nn5)ccnc4n3C)CC2)c(Cl)c1 [Example 1af77, 4-(1-((4-(6-Aminopyridazin-3-yl)-1-methyl-1H-pyrrolo[2,3-b]pyridin-2-yl)methyl)-1,2,3,6-tetrahydropyridin-4-yl)-3-chloro-N,N-dimethylbenzamide] — 1.27 log units lower, 6.06
- CN(C)C(=O)c1ccc(C2=CCN(Cc3cc4c(-c5ccc(N)nn5)ccnc4n3C)CC2)nc1 [Example 1af78, 1′-((4-(6-Aminopyridazin-3-yl)-1-methyl-1H-pyrrolo[2,3-b]pyridin-2-yl)methyl)-N,N-dimethyl-1′,2′,3′,6′-tetrahydro-[2,4′-bipyridine]-5-carboxamide] — 1.26 log units lower, 6.07
- Cc1cc(C(=O)N(C)C)cc(F)c1C1=CCN([C@@H](C)c2cc3c(-c4ccc(N)nn4)ccnc3n2C)CC1 [Example 1af80, (S)-4-(1-(1-(4-(6-aminopyridazin-3-yl)-1-methyl-1H-pyrrolo[2,3-b]pyridin-2-yl)ethyl)-1,2,3,6-tetrahydropyridin-4-yl)-3-fluoro-N,N,5-trimethylbenzamide] — 0.61 log units higher, 7.94
- [2H]C([2H])([2H])N(C(=O)c1cc(C)c(C2=CCN([C@@H](C)c3cc4c(-c5ccc(N)nn5)ccnc4n3C)CC2)c(F)c1)C([2H])([2H])[2H] [Example 1af81, (S)-4-(1-(1-(4-(6-aminopyridazin-3-yl)-1-methyl-1H-pyrrolo[2,3-b]pyridin-2-yl)ethyl)-1,2,3,6-tetrahydropyridin-4-yl)-3-fluoro-5-methyl-N,N-bis(methyl-d3)benzamide] — 0.57 log units higher, 7.90
- CN(C)C(=O)c1ccc(C2CCN(Cc3cc4c(-c5ccc(N)c(C(=O)O)n5)ccnc4n3C)CC2)cc1 [Example 1k79, 3-Amino-6-[2-[[4-[4-(dimethylcarbamoyl)phenyl]-1-piperidyl]methyl]-1-methyl-pyrrolo[2,3-b]pyridin-4-yl]pyridine-2-carboxylic acid] — 2.19 log units lower, 5.14
- [2H]C([2H])([2H])N(C(=O)c1ccc(N2CCN(Cc3cc4c(-c5ccc(NC)nn5)ccnc4n3C)CC2)c(C)c1)C([2H])([2H])[2H] [Example 1p4, 3-Methyl-4-[4-[[1-methyl-4-[6-(methylamino)pyridazin-3-yl]pyrrolo[2,3-b]pyridin-2-yl]methyl]piperazin-1-yl]-N,N-bis(trideuteriomethyl)benzamide] — 2.45 log units lower, 4.88
- [2H]C([2H])([2H])N(C(=O)c1ccc(C2=CCN(Cc3cc4c(-c5ccc(NC)nn5)ccnc4n3C)CC2)c(C)c1)C([2H])([2H])[2H] [Example 1p7, 3-Methyl-4-[1-[[1-methyl-4-[6-(methylamino)pyridazin-3-yl]pyrrolo[2,3-b]pyridin-2-yl]methyl]-3,6-dihydro-2H-pyridin-4-yl]-N,N-bis(trideuteriomethyl)benzamide] — 1.03 log units lower, 6.30
- CNc1ccc(-c2ccnc3c2cc(CN2CC=C(c4c(C)cc(C(=O)N(C)C)cc4C)CC2)n3C)nn1 [Example 1p10, N,N,3,5-Tetramethyl-4-[1-[[1-methyl-4-[6-(methylamino)pyridazin-3-yl]pyrrolo[2,3-b]pyridin-2-yl]methyl]-3,6-dihydro-2H-pyridin-4-yl]benzamide] — 0.71 log units lower, 6.62
- CNc1ccc(-c2ccnc3c2cc(CN2CC=C(c4ncc(C(=O)N(C)C)cc4C)CC2)n3C)nn1 [Example 1p11, N,N,5-Trimethyl-6-[1-[[1-methyl-4-[6-(methylamino)pyridazin-3-yl]pyrrolo[2,3-b]pyridin-2-yl]methyl]-3,6-dihydro-2H-pyridin-4-yl]pyridine-3-carboxamide] — 1.99 log units lower, 5.34
- CNc1ccc(-c2ccnc3c2cc(CN2CC=C(c4ccc(C(=O)N(C)C)cc4OC)CC2)n3C)nn1 [Example 1p14, 3-Methoxy-N,N-dimethyl-4-[1-[[1-methyl-4-[6-(methylamino)pyridazin-3-yl]pyrrolo[2,3-b]pyridin-2-yl]methyl]-3,6-dihydro-2H-pyridin-4-yl]benzamide] — 1.84 log units lower, 5.49
- CNc1ccc(-c2ccnc3c2cc(CN2CC=C(c4ccc(C(=O)N(C)C)cc4C(F)(F)F)CC2)n3C)nn1 [Example 1p15, N,N-Dimethyl-4-[1-[[1-methyl-4-[6-(methylamino)pyridazin-3-yl]pyrrolo[2,3-b]pyridin-2-yl]methyl]-3,6-dihydro-2H-pyridin-4-yl]-3-(trifluoromethyl)benzamide] — 1.51 log units lower, 5.82
- CNc1ccc(-c2ccnc3c2cc(CN2CC=C(c4c(C)cc(C(=O)N(C)C)cc4F)CC2)n3C)nn1 [Example 1p17, 3-Fluoro-N,N,5-trimethyl-4-[1-[[1-methyl-4-[6-(methylamino)pyridazin-3-yl]pyrrolo[2,3-b]pyridin-2-yl]methyl]-3,6-dihydro-2H-pyridin-4-yl]benzamide] — 0.30 log units lower, 7.03
- CNc1ccc(-c2ccnc3c2cc(CN2CC=C(c4ccc(C(=O)N(C)C)cc4Cl)CC2)n3C)nn1 [Example 1p18, 3-Chloro-N,N-dimethyl-4-[1-[[1-methyl-4-[6-(methylamino)pyridazin-3-yl]pyrrolo[2,3-b]pyridin-2-yl]methyl]-3,6-dihydro-2H-pyridin-4-yl]benzamide] — 1.56 log units lower, 5.77
- CNc1ccc(-c2ccnc3c2cc(CN2CC=C(c4c(F)cc(C(=O)N(C)C)cc4Cl)CC2)n3C)nn1 [Example 1p20, 3-Chloro-5-fluoro-N,N-dimethyl-4-[1-[[1-methyl-4-[6-(methylamino)pyridazin-3-yl]pyrrolo[2,3-b]pyridin-2-yl]methyl]-3,6-dihydro-2H-pyridin-4-yl]benzamide] — 0.66 log units lower, 6.67
- CN(C)C(=O)c1ccc(C2=CCN(Cc3cc4c(-c5ccc(N)nn5)ccnc4n3C)CC2)cc1 [Example 1z1, 4-(1-((4-(6-aminopyridazin-3-yl)-1-methyl-1H-pyrrolo[2,3-b]pyridin-2-yl)methyl)-1,2,3,6-tetrahydropyridin-4-yl)-N,N-dimethylbenzamide] — 0.91 log units higher, 8.24
